Measurements taken from ChEMBL document CHEMBL4334438, “Discovery of novel glycogen synthase kinase-3α inhibitors: Structure-based virtual screening, preliminary SAR and biological evaluation for treatment of acute myeloid leukemia” (Eur J Med Chem, 2019).

What was measured:
[1] = system: RAF proto-oncogene serine/threonine-protein kinase (Homo sapiens), P04049 [Y340D,Y341D]; test: Inhibition of recombinant human C-Raf Y340D/Y341D double mutant (306 to end residues) assessed as residual activity at 1 uM poly(Glu, Tyr) 4:1 as substrate incubated 40 mins in presence of [gamma-33ATP] by scintillation counting based radiometry assay relative to control
[2] = target: Activin receptor type-2A (Homo sapiens) (UniProt P27037); test: Inhibition of human ACTR2A (162 to end residues) assessed as residual activity at 1 uM using casein as substrate incubated for 120 mins in presence of [gamma-33ATP] by scintillation counting based radiometry assay relative to control
Chain of Activin receptor type-2A (Homo sapiens) (P27037 whole entry, the tested form may be a part): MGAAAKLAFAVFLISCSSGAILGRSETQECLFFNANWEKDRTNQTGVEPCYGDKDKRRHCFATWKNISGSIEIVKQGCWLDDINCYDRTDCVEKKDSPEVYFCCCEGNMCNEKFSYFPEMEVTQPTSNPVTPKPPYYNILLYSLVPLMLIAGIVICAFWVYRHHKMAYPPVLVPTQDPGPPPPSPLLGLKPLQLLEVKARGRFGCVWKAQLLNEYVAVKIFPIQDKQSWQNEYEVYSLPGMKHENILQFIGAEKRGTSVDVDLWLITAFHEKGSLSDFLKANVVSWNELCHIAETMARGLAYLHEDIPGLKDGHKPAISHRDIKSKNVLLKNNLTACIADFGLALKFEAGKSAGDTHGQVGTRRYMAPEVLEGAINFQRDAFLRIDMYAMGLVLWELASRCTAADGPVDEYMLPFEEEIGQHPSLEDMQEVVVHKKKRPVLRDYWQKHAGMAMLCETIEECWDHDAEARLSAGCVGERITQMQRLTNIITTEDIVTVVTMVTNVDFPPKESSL

[3] = target: Cyclin-dependent kinase-like 1 (Homo sapiens) (UniProt Q00532); test: Inhibition of recombinant human CDKL1 (1 to 303 residues) assessed as residual activity at 1 uM using RRRFRPASPLRGP as substrate measured after 120 mins in presence of [gamma33P]ATP by scintillation counting method
Chain of Cyclin-dependent kinase-like 1 (Homo sapiens) (Q00532 whole entry, the tested form may be a part): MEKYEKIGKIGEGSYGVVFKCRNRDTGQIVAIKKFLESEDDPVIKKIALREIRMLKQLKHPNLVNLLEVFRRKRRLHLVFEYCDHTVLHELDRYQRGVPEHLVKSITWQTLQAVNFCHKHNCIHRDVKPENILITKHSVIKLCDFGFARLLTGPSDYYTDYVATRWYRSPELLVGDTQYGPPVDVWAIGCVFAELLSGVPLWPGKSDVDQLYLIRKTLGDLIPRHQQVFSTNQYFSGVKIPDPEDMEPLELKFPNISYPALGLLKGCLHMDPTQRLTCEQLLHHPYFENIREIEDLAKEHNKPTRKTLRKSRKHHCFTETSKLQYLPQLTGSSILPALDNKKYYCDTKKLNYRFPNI

[4] = system: RAC-beta serine/threonine-protein kinase (Homo sapiens), P31751 [S474D]; test: Inhibition of recombinant human PKBbeta S474D mutant (120 to end residues) assessed as residual activity at 1 uM using GRPRTSSFAEGKK as substrate measured after 40 mins in presence of [gamma33P]ATP by scintillation counting method relative to control
Chain of RAC-beta serine/threonine-protein kinase (Homo sapiens), P31751 [S474D] (P31751 whole entry S474D): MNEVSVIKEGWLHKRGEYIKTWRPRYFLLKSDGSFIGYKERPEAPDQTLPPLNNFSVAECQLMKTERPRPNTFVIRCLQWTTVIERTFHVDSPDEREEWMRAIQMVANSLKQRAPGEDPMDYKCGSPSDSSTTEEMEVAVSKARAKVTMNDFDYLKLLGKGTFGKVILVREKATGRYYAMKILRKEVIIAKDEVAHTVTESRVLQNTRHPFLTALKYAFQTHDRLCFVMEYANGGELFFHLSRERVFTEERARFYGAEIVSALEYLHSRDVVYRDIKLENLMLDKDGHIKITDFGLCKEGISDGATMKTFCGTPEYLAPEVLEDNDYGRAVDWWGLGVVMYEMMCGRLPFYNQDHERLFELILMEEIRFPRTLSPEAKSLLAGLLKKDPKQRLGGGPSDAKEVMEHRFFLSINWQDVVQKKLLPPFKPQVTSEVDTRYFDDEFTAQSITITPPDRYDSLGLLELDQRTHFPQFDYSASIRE

[5] = target: Protein kinase C iota type (Homo sapiens) (UniProt P41743); test: Inhibition of recombinant full-length human PKCiota assessed as residual activity at 1 uM using ERMRPRKRQGSVRRRV as substrate incubated for 40 mins in presence of [gamma33P]ATP by scintillation counting based radiometry assay relative to control
Chain of Protein kinase C iota type (Homo sapiens) (P41743 whole entry): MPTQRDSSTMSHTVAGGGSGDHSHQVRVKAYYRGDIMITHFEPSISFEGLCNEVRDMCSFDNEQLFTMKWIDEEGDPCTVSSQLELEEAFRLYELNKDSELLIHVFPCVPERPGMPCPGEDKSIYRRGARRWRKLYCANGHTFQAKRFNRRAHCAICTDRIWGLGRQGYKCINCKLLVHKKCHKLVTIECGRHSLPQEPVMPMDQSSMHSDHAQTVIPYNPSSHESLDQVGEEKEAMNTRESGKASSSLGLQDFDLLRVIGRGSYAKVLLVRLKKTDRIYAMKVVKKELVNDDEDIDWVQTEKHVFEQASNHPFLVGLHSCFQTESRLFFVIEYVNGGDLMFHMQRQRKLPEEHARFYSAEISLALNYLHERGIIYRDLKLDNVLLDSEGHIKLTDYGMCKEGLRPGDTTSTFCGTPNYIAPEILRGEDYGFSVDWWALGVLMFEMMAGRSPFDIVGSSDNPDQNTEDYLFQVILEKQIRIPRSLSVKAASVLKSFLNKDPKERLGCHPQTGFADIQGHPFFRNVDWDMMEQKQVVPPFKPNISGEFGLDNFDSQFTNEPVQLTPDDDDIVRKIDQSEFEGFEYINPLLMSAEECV

[6] = target: Tyrosine-protein kinase JAK3 (Homo sapiens) (UniProt P52333); test: Inhibition of human JAK3 (781 to end residues) assessed as residual activity at 1 uM using GGEEEEYFELVKKKK as substrate after 40 mins by [gamma-33ATP] radiometric assay relative to control
[7] = target: Tyrosine-protein kinase Fgr (Homo sapiens) (UniProt P09769); test: Inhibition of recombinant human FGR (2 to end residues) assessed as residual activity at 1 uM using poly(Glu, Tyr) 4:1 as substrate at 40 mins in presence of [gamma-33ATP] by scintillation counting based radiometry assay relative to control
[8] = target: CDK3/Cyclin E (Homo sapiens) (UniProt P24864+Q00526); test: Inhibition of recombinant full length human CDK3/CyclinE assessed as residual activity at 1 uM using Histone H1 as substrate incubated for 40 mins in presence of [gamma-33ATP] by scintillation counting based radiometry assay relative to control; type: protein-complex assay
Chain of CDK3/Cyclin E (Homo sapiens) (P24864 whole entry, looked up, the tested form may be a part): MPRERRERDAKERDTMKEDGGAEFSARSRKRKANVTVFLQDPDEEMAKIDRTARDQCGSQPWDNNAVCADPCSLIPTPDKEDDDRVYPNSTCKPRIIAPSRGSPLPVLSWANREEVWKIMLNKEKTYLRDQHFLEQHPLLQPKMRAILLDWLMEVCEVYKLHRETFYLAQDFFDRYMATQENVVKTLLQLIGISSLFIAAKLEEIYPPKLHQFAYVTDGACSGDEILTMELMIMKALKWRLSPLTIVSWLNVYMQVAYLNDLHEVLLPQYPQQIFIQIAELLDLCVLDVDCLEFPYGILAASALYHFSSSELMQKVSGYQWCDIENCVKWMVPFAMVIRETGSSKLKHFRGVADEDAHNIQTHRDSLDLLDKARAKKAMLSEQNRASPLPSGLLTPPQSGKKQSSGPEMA
Chain of CDK3/Cyclin E (Homo sapiens) (Q00526 whole entry, looked up, the tested form may be a part): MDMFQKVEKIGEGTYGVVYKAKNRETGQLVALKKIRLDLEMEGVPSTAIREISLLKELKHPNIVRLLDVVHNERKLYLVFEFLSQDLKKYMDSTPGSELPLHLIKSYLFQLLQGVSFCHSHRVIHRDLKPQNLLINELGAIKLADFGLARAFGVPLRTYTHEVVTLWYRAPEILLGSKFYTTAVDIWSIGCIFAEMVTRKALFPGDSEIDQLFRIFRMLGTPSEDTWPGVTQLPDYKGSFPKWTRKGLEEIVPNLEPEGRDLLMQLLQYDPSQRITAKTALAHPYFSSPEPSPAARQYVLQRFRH

[9] = target: Death-associated protein kinase 1 (Homo sapiens) (UniProt P53355); test: Inhibition of recombinant human DAPK1 (1 to 296 residues) assessed as residual activity at 1 uM KKLNRTLSFAEPG as substrate incubated 40 mins in presence of [gamma-33ATP] by scintillation counting based radiometry assay relative to control
[10] = target: Mitogen-activated protein kinase kinase kinase 9 (Homo sapiens) (UniProt P80192); test: Inhibition of recombinant human MLK1 (134 to 414 residues) assessed as residual activity at 1 uM using casein as substrate incubated for 40 mins in presence of [gamma-33ATP by scintillation counting based radiometry assay relative to control
[11] = target: Protein kinase C epsilon type (Homo sapiens) (UniProt Q02156); test: Inhibition of recombinant human PKCepsilon (2 to end residues) assessed as residual activity at 1 uM using ERMRPRKRQGSVRRRV as substrate measured after 40 mins in presence of [gamma33P]ATP by scintillation counting method relative to control
[12] = target: Cyclin-dependent kinase 13/Cyclin-K (Homo sapiens) (UniProt Q14004+O75909); test: Inhibition of recombinant full length human CDK13/cyclinK assessed as residual activity at 1 uM using RSRSRSRSRSRSRSR as substrate incubated for 120 mins in presence of [gamma-33ATP] by scintillation counting based radiometry assay relative to control; type: protein-complex assay
[13] = organism: Homo sapiens; test: Inhibition of recombinant full length human Aurora A I31F mutant assessed as residual activity at 1 uM using LRRASLG as substrate incubated for 40 mins in presence of [gamma-33ATP] by scintillation counting based radiometry assay relative to control
[14] = target: Eukaryotic translation initiation factor 2-alpha kinase 3 (Homo sapiens) (UniProt Q9NZJ5); test: Inhibition of human PEK (536 to end residues) assessed as residual activity at 1 uM using RSRSRSRSRSRSRSR as substrate measured after 40 mins in presence of [gamma33P]ATP by scintillation counting method relative to control
[15] = target: Serine/threonine-protein kinase 17B (Homo sapiens) (UniProt O94768); test: Inhibition of recombinant human DRAK2 assessed as residual activity at 1 uM using KKRPQRRYSNVF as substrate at 120 mins in presence of [gamma-33ATP] by scintillation counting based radiometry assay relative to control
Chain of Serine/threonine-protein kinase 17B (Homo sapiens) (O94768 whole entry): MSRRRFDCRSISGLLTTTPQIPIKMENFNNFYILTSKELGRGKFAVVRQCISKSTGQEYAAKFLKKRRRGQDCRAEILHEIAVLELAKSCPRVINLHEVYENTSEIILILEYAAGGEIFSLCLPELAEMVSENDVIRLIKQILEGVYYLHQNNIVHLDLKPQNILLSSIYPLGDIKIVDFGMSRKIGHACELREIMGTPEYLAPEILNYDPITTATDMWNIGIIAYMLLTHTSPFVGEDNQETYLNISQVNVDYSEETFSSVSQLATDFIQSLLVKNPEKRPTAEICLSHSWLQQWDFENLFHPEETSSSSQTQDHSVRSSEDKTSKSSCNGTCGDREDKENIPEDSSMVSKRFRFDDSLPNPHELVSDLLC

[16] = system: eIF-2-alpha kinase GCN2 (Homo sapiens), Q9P2K8 [E556G]; test: Inhibition of recombinant full length human GCN2 E556G mutant assessed as residual activity at 1 uM using RSRSRSRSRSRSRSR as substrate at 40 mins in presence of [gamma-33ATP] by scintillation counting based radiometry assay relative to control
[17] = target: Tyrosine-protein kinase HCK (Homo sapiens) (UniProt P08631); test: Inhibition of human HCK (230 to 497 residues) assessed as residual activity at 1 uM using KVEKIGEGTYGVVYK as substrate after 40 mins by [gamma-33ATP] radiometric assay relative to control
[18] = target: Protein-tyrosine kinase 2-beta (Homo sapiens) (UniProt Q14289); test: Inhibition of recombinant human full length PYK2 assessed as residual activity at 1 uM using poly(Glu, Tyr) 4:1 as substrate measured after 40 mins in presence of [gamma33P]ATP by scintillation counting method relative to control
Chain of Protein-tyrosine kinase 2-beta (Homo sapiens) (Q14289 whole entry, looked up): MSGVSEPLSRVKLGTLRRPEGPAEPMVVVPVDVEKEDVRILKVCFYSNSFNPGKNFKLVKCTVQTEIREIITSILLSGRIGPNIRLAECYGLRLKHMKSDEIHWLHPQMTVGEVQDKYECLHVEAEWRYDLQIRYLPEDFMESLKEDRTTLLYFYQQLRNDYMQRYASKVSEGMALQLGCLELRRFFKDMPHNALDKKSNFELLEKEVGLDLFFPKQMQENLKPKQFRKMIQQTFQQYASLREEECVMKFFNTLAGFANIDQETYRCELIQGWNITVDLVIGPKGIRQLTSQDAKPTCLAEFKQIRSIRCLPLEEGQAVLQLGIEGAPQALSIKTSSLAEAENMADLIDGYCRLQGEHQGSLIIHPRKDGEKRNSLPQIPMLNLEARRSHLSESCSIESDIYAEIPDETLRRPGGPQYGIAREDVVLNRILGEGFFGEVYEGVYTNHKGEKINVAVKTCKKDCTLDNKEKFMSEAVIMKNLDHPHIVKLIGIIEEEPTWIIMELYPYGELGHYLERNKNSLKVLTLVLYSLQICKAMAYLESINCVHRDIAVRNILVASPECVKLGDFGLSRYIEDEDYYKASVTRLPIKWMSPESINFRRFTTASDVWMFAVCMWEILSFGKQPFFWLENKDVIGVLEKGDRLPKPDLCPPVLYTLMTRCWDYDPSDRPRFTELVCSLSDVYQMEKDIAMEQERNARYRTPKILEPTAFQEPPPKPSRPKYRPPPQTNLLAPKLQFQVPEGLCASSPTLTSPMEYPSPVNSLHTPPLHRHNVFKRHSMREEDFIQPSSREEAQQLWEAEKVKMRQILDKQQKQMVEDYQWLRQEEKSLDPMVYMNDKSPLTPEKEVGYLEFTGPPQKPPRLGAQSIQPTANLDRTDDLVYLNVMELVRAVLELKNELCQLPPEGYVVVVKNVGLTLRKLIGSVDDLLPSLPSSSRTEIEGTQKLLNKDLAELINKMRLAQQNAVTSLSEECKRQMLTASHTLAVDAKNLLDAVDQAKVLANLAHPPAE

[19] = target: Cyclin-dependent kinase 5/CDK5 activator 1 (Homo sapiens) (UniProt Q00535+Q15078); test: Inhibition of recombinant full length human CDK5/p35 assessed as residual activity at 1 uM using histone H1 as substrate incubated for 40 mins in presence of [gamma-33ATP] by scintillation counting based radiometry assay relative to control; type: protein-complex assay
[20] = target: Serine/threonine-protein kinase PAK 3 (Homo sapiens) (UniProt O75914); test: Inhibition of recombinant full-length human PAK3 assessed as residual activity at 1 uM using RRRLSFAEPG as substrate measured after 40 mins in presence of [gamma33P]ATP by scintillation counting method relative to control
[21] = target: 5'-AMP-activated protein kinase catalytic subunit alpha-1 (Homo sapiens) (UniProt Q13131); test: Inhibition of recombinant full length human AMPKalpha1 assessed as residual activity at 1 uM using AMARAASAAALAR as substrate incubated for 40 mins in presence of [gamma-33ATP] by scintillation counting based radiometry assay relative to control
Chain of 5'-AMP-activated protein kinase catalytic subunit alpha-1 (Homo sapiens) (Q13131 whole entry, looked up): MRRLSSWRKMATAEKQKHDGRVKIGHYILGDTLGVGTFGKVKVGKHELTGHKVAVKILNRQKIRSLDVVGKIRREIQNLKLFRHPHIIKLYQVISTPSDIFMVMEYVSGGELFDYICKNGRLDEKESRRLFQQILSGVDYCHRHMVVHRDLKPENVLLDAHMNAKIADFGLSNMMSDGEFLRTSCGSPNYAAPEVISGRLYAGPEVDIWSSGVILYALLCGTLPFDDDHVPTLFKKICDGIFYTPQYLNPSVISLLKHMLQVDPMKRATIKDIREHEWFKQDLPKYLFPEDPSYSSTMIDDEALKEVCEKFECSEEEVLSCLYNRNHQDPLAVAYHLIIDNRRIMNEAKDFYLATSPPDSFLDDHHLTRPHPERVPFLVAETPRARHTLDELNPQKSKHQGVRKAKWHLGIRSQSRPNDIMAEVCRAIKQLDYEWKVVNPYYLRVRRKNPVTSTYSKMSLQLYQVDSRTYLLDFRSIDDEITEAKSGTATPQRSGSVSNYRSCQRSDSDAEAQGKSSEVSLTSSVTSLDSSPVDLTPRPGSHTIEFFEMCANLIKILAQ

| Structure (SMILES) | Activity [1] | Activity [2] | Activity [3] | Activity [4] | Activity [5] | Activity [6] | Activity [7] | Activity [8] | Activity [9] | Activity [10] | Activity [11] | Activity [12] | Activity [13] | Activity [14] | Activity [15] | Activity [16] | Activity [17] | Activity [18] | Activity [19] | Activity [20] | also measured |
| --- | --- | --- | --- | --- | --- | --- | --- | --- | --- | --- | --- | --- | --- | --- | --- | --- | --- | --- | --- | --- | --- |
| N=C1NC(=O)/C(=C\c2ccc(-c3cccc([N+](=O)[O-])c3)o2)S1 | 98% | 99% | 85% | 111% | 102% | 102% | 81% | 80% | 84% | 98% | 106% | 102% | 101% | 99% | 59% | 104% | 72% | 103% | 53% | 95% | Activity [21]: 44% |
| C=CCOC(=O)c1cc(-c2ccc(/C=C3/NC(=S)NC3=O)o2)ccc1Cl | 85% | 100% | 78% | 102% | 105% | 104% | 90% | 88% | 92% | 99% | 99% | 96% | 114% | 95% | 80% | 106% | 73% | 104% | 73% | 102% | Activity [21]: 24% |
